# Read-outs that look alike come from different tables or passages of the source.
# Columns and labels:
# [1] = tested on: HeLa cervix epitheloid carcinoma cells; assay: In vitro cytotoxicity, MTT assay, HeLa; assay type: cell-based, human; conditions: 24 h, read-out: IC50 ± SD, HeLa
# Experimental: (§1) Figure S2. […] The cells were plated at 96-well dishes and cultured according manufacturer instructions. The tested compounds were applied to the cells for 24 h in concentrations ranging from 0.01 to 50 µM. The tested compounds were applied to the cells for 24 h. The cytotoxicity was assessed by the MTT test, measurements were performed in triplicate, and each cytotoxicity experiment was repeated three times. The data are expressed as IC50 ± SD (μM).
# [2] = tested on: A549 lung carcinoma cells; assay: In vitro cytotoxicity, MTT assay, A549; assay type: cell-based, human; conditions: 24 h, read-out: IC50 ± SD, A549
# Experimental: as §1, with “S1.” for “S2.”
# [3] = tested on: THP-1 monocytic leukemia cells; assay: In vitro cytotoxicity, WST-1 test, THP-1; assay type: cell-based, human; conditions: 24 h, WST-1, serum-free medium; read-out: IC50 ± SD, THP-1
# Experimental: as §1, with “S7.” for “S2.”
# [4] = tested on: A2780 ovarian carcinoma cells; assay: In vitro cytotoxicity, MTT assay, A2780; assay type: cell-based, human; conditions: 24 h, read-out: IC50 ± SD, A2780
# Experimental: as §1, with “S4.” for “S2.”
# [5] = tested on: primary human hepatocytes (HH1); assay: Toxicity to primary human hepatocytes; assay type: cell-based; conditions: 24 h, MTT; read-out: IC50 ± SD, HH1 (toxicity to primary human hepatocytes)
# [6] = tested on: IL-1β secretion, LPS-stimulated THP-1 cells; assay: LPS-induced IL-1β secretion in THP-1 macrophages (ELISA); assay type: cell-based, human; conditions: 0.2 μM; for increase of IL-1β secretion, factor: LPS-activated cells, 24 h; for IL-1β secretion: 1 h pre-treatment, then LPS 24 h
# Experimental: (§2) To determine the influence of the tested complexes on the TNF-α and IL-1β secretions, the human monocytic leukemia cell line THP-1 was used. The cells were cultivated at 37°C in the RPMI 1640 medium supplemented with 2 mM L-glutamine, 10% fetal bovine serum (FBS), 100 U/mL of penicillin and 100 μg/mL of streptomycin in a humidified atmosphere containing 5% CO2. The stabilized cells (3rd–20th passage) were split into microtitration plates to get a concentration of 100 000 cells/mL and the differentiation to macrophages was induced by a phorbol myristate acetate (PMA) as we described previously.
# (§3) Differentiated macrophages were pretreated for 1 h with 0.2 μM solutions of the tested complexes, prednisone or CuSO4 · 5 H2O dissolved in DMSO (the final DMSO concentration was 0.1%) and with 0.1% DMSO solution itself (the experimental group called vehicle); the given concentrations of the tested compounds lack the cytotoxic effect. The inflammatory response was triggered by adding 1.0 μg/mL lipopolysaccharide (LPS) dissolved in water to pretreated macrophages, control cells were without the LPS treatment. Each experiment was repeated three-times.
# (§4) Macrophages pretreated with the tested compounds for 1 h were incubated with LPS for next 24 h. After this period, the medium was collected and the concentration of TNF-α and IL-1β was measured by Instant ELISA kit (eBioscience, Vienna, Austria) according to the manufacturer’s manual.
# [7] = tested on: A2780cis cisplatin-resistant ovarian carcinoma cells; assay: In vitro cytotoxicity, MTT assay, A2780cis; assay type: cell-based, human; conditions: for IC50: 24 h, MTT, read-out: IC50 ± SD, A2780cis; for IC50(A2780cis)/IC50(A2780) ratio (resistance factor): in comparison with cisplatin
# Experimental: as §1, with “S5.” for “S2.”
# [8] = tested on: LNCaP androgen-sensitive prostate adenocarcinoma cells; assay: In vitro cytotoxicity, MTT assay, LNCaP; assay type: cell-based, human; conditions: 24 h, read-out: IC50 ± SD, LNCaP
# Experimental: as §1, with “S6.” for “S2.”
# [9] = tested on: G361 malignant melanoma cells; assay: In vitro cytotoxicity, MTT assay, G361; assay type: cell-based, human; conditions: 24 h, read-out: IC50 ± SD, G361
# Experimental: as §1, with “S3.” for “S2.”
# [10] = tested on: TNF-α secretion, LPS-stimulated THP-1 cells; assay: LPS-induced TNF-α secretion in THP-1 macrophages (ELISA); assay type: cell-based, human; conditions: 0.2 μM; for increase of TNF-α secretion, factor in comparison to vehicle: LPS-activated macrophages, 24 h; for TNF-α secretion: 1 h pre-treatment, then LPS 24 h
# Experimental: as §2, §3, §4
# [11] = tested on: all cancer cell lines (A2780, A2780cis, G361, A549, HeLa, LNCaP, THP-1); assay: Antiproliferative effect of starting compounds on all cancer cell lines; conditions: 24 h, read-out: IC50, in vitro cytotoxicity of starting compounds on all cancer cell lines
# [12] = tested on: glucocorticoid receptor (GR) transcriptional activity; conditions: 24 h; complexes 10 nM – 5 μM; DEX 10 pM – 100 nM
# [13] = tested on: THP-1 monocytic leukemia cells; design: method as in PMID 15139770; conditions: cited from earlier work
# [14] = tested on: aryl hydrocarbon receptor (AhR) transcriptional activity; assay: AhR gene reporter assay in AZ-AhR cells; assay type: cell-based, human; conditions: 24 h; complexes 10 nM – 5 μM; TCDD 10 pM – 10 μM
SMILES,IC50 [1] [nM],IC50 [2] [nM],IC50 [3] [nM],IC50 [4] [nM],IC50 [5] [nM],"increase of IL-1β secretion, factor [6]",IC50 [7] [nM],IC50 [8] [nM],IC50 [9] [nM],"increase of TNF-α secretion, factor in comparison to vehicle [10]",other results
"Cc1cc2cccnc2c2ncccc12.F[B-](F)(F)F.O.O=c1c([O-])c(-c2ccccc2)[nH]c2ccccc12.[Cu+2] [compound 4, [Cu(qui)(mphen)]BF4 · H2O]",2400 ± 1000,2500 ± 600,1100 ± 400,360 ± 50,9300 ± 600,1.6,560 ± 150,1500 ± 600,530 ± 90,1.6,
"c1cnc2c(c1)ccc1cccnc12 [phen, 1,10-phenanthroline]",,,,,,,,,,,IC50 ([11]; Homo sapiens): > 50000 nM
"O.O.O.O.O.O=S(=O)([O-])[O-].[Cu+2] [CuSO4·5H2O, reference compound]",,,,,,~1.6,,,,1.4,
"O=c1c(O)c(-c2ccccc2)[nH]c2ccccc12 [Hqui, 2-phenyl-3-hydroxy-4(1H)-quinolinone]",,,,,,,,,,,IC50 ([11]; Homo sapiens): > 50000 nM
"C[C@@H]1C[C@H]2[C@@H]3CCC4=CC(=O)C=C[C@]4(C)[C@@]3(F)[C@@H](O)C[C@]2(C)[C@@]1(O)C(=O)CO [DEX, dexamethasone]",,,,,,,,,,,"luciferase activity in AZ-GR cells [12]: strongly, dose-dependently induced"
"O.O=[N+]([O-])[O-].O=c1c([O-])c(-c2ccccc2)[nH]c2ccccc12.[Cu+2].c1ccc(-c2ccnc3c2ccc2c(-c4ccccc4)ccnc23)cc1 [compound 5, [Cu(qui)(bphen)]NO3 · H2O]",1000 ± 200,1700 ± 300,570 ± 80,660 ± 70,3600 ± 200,6.9,730 ± 80,740 ± 210,960 ± 30,1.8,IL-1β secretion [6]: 1177 ± 128 pg/mL; IC50(A2780cis)/IC50(A2780) ratio (resistance factor) [7]: practically two times lower; TNF-α secretion [10]: 2873 ± 238 pg/mL
"N.N.[Cl][Pt][Cl] [cisplatin, reference compound]",10000 ± 2600,25800 ± 7100,,12000 ± 800,,,27000 ± 4600,3800 ± 1500,3400 ± 100,,IC50 [13]: 2000 nM
"O.O=[N+]([O-])[O-].O=c1c([O-])c(-c2ccccc2)[nH]c2ccccc12.[Cu+2].c1cnc2c(c1)ccc1cccnc12 [compound 1, [Cu(qui)(phen)]NO3 · H2O]",2900 ± 300,2500 ± 400,2000 ± 100,650 ± 280,> 10000,practically no influence,830 ± 300,2400 ± 600,820 ± 150,~ 1.25,
F[B-](F)(F)F.F[B-](F)(F)F.[Cu+2] [Cu(BF4)2 · H2O],,,,,,,,,,,IC50 [11]: > 50000 nM
"Clc1cc2c(cc1Cl)Oc1cc(Cl)c(Cl)cc1O2 [TCDD, 2,3,7,8-tetrachlorodibenzo-p-dioxin]",,,,,,,,,,,"luciferase activity in AZ-AhR cells [14]: strongly, dose-dependently induced"
"Cc1cc2cccnc2c2ncccc12.O.O=[N+]([O-])[O-].O=c1c([O-])c(-c2ccccc2)[nH]c2ccccc12.[Cu+2] [compound 3, [Cu(qui)(mphen)]NO3 · H2O]",2600 ± 400,2500 ± 600,1500 ± 300,380 ± 30,> 10000,practically no influence,780 ± 70,2100 ± 600,530 ± 220,~ 1.25,
"C[C@]12C=CC(=O)C=C1CC[C@@H]1[C@@H]2C(=O)C[C@@]2(C)[C@H]1CC[C@]2(O)C(=O)CO [prednisone, reference compound]",,,,,,,,,,,IL-1β secretion [6]: 118.5 ± 4.8 pg/mL; TNF-α secretion [10]: 1173 ± 85 pg/mL
O=[N+]([O-])[O-].O=[N+]([O-])[O-].[Cu+2] [Cu(NO3)2 · 3H2O],,,,,,,,,,,IC50 [11]: > 50000 nM
"Cc1cc2cccnc2c2ncccc12 [mphen, 5-methyl-1,10-phenanthroline]",,,,,,,,,,,IC50 ([11]; Homo sapiens): > 50000 nM
"c1ccc(-c2ccnc3c2ccc2c(-c4ccccc4)ccnc23)cc1 [bphen, bathophenanthroline]",,,,,,,,,,,IC50 [11]: > 50000 nM
"F[B-](F)(F)F.O=c1c([O-])c(-c2ccccc2)[nH]c2ccccc12.[Cu+2].c1cnc2c(c1)ccc1cccnc12 [compound 2, [Cu(qui)(phen)]BF4]",2700 ± 600,3900 ± 1200,1700 ± 200,520 ± 100,20400 ± 1200,practically no influence,1700 ± 600,1900 ± 600,640 ± 200,~ 1.25,
"F[B-](F)(F)F.O=c1c([O-])c(-c2ccccc2)[nH]c2ccccc12.[Cu+2].c1ccc(-c2ccnc3c2ccc2c(-c4ccccc4)ccnc23)cc1 [compound 6, [Cu(qui)(bphen)]BF4]",1300 ± 400,1300 ± 400,560 ± 100,570 ± 110,5300 ± 300,6.4,700 ± 200,620 ± 80,720 ± 60,2,IL-1β secretion [6]: 1087 ± 101 pg/mL; IC50(A2780cis)/IC50(A2780) ratio (resistance factor) [7]: practically two times lower; TNF-α secretion [10]: 3284 ± 139 pg/mL

# Source: paper PMC3556092, “Cellular responses induced by Cu(II) quinolinonato complexes in human tumor and hepatic cells” (Chemistry Central Journal, 2012)
